Consider one molecule from US20160075689A1, “POLYMERASE, ENDONUCLEASE, AND HELICASE INHIBITORS AND METHODS OF USING THEREOF” (THE BOARD OF TRUSTEES OF THE UNIVERSITY OF ARKANSAS, priority 2013, published 2016).

As a reminder, the IC50 is the midpoint of a concentration-inhibition curve.

Assay [1] concerns the target T1, EndoG (Homo sapiens, UniProt Q14249).
T1 sequence (Q14249 49-297): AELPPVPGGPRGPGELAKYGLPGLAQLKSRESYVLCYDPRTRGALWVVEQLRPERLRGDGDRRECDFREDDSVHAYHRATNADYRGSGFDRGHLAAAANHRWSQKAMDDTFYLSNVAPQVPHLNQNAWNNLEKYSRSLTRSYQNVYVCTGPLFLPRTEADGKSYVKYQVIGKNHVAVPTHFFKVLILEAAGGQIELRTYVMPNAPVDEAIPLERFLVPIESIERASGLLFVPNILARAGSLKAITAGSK
The assay can be described thus: High-throughput EndoG screening assay. It counts as biochemical.

Assay [2] concerns EndoG-expressing PC3 cells. The assay can be described thus: Cytoprotection against Docetaxel-induced cell death, LDH release and TUNEL assays. It counts as cell-based, human. To be noted: Docetaxel 80 μM, inhibitor 50 μM. The protocol:
Docetaxel is an anti-cancer drug used to treat prostate cancer. Human invasive prostate cancer PC3 cells are known to be resistant to anticancer drugs. […] The resulting EndoG-expressing PC3 cells were exposed with Docetaxel (80 μM) in the absence or presence of the inhibitors, PNR-3-80 or PNR-3-82 (50 μM each). The cell death was measured by using two methods, LDH release assay and TUNEL assay. […]
(LDH leaks from cells whose membrane has failed.)

The subject of assay [3] is SOD. The assay can be described thus: SOD activity in NRK-52E cell extract. It counts as biochemical. Conditions: 0.1 μM and 10 μM. The procedure: (§1) As a follow up to Example 8, the effects of the EndoG inhibitors PNR-3-80 and PNR-3-82, at 0.1 μM and 10 μM each, on the activities of four other enzymes including RNase A, protease, LDH, and SOD in NRK-52E cell extract were examined. NRK-52E cells were grown to ˜80% confluence in […]. The medium was aspirated and the cells were rinsed with ice cold 1×PBS, pH 7.4. The cells were lysed in 50 mM Tris-HCl, pH 7.4, 150 mM NaCl, 1% Triton X-100 for 10 min on ice and then briefly sonicated. Cell debris was removed by centrifugation at 13,000×g for 10 min at 4° C. The supernatant was collected and stored at −80° C. until use. LDH, Protease, Superoxide dismutase (SOD), and Ribonuclease A (RNase A) activities were measured by using CytoTox 96® Non-Radioactive Cytotoxicity Assay kit (Promega, Madison, Wis.), Protease Fluorescent Detection kit (Sigma-Aldrich, Saint Louis, Mo.), SOD determination kit (Sigma-Aldrich, Saint Louis, Mo.), and Ribonuclease A Detection kit (Sigma-Aldrich, Saint Louis, Mo.), respectively, according to the manufacturer's instructions.

Assay [4] relates to protease. The experiment in a line: Protease activity in NRK-52E cell extract. It counts as biochemical. To be noted: 0.1 μM and 10 μM. The procedure: as §1
For assay [5], the target named is T2, HCV NS3 helicase (Hepatitis C virus genotype 1b, UniProt P26663).
T2 construct: analyze the helicase activity of NS3 helicase in the presence of the compounds; made in house
T2 sequence (P26663 1027-1657): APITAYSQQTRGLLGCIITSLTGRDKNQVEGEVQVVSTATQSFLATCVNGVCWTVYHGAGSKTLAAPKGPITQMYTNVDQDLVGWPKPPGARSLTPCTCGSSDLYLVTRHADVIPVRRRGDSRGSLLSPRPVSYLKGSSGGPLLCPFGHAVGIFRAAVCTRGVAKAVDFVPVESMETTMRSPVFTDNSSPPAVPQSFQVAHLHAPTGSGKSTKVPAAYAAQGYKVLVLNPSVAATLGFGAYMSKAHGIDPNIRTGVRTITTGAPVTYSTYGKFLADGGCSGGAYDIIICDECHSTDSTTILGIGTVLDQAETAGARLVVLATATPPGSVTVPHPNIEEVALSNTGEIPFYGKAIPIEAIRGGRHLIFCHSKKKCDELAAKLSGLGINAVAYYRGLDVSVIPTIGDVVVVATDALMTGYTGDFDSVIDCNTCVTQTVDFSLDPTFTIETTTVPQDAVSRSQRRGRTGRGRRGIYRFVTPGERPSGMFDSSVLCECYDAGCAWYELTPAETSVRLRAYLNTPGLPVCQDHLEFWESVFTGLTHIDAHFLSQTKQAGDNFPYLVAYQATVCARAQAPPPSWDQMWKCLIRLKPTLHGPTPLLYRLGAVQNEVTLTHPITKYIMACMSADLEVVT
The assay can be described thus: Fluorescence-based helicase assay. To be noted: IC50 for inhibition of NS3 helicase, mean ± standard deviation of three data sets. In kind it is biochemical. The protocol: A library of compounds was screened using a previously validated quantitative assay that measures helicase activity over time. The assay relies upon helicase-catalyzed displacement of a fluorescently-labeled oligonucleotide (FIG. 13A). The concentration of enzyme and compounds used was 250 nM and 20 μM respectively. The experiments were performed in triplicate. […] Three potential helicase inhibitors were identified using the fluorescence based assay. […] The inhibitor compounds identified in our screen were ITBA-3-79, ITBA-3-82 and ITBA-3-85 (FIG. 14A). […] The IC50 value for ITBA-3-79, ITBA-3-82 and ITBA-3-85-mediated inhibition of NS3 helicase ranged˜20 μM (FIG. 14C). The ATPase activity of NS3 (50 μM) was analyzed in the presence of ITBA-3-79, ITBA-3-82 and ITBA-3-85 using a coupled spectrophotometric assay (Raney and Benkovic 1995, (FIG. 15). The protease activity of NS3 was analyzed in the presence of ITBA-3-79, ITBA-3-82 and ITBA-3-85 by using 50 nM NS3-4A and 100 nM substrate (Ac-Asp-Glu-Asp-EDANS-Glu-Glu-Abu-L-Lactoyl-Ser-Lys DABCYL-NH2, FIG. 15. The NS3 helicase activity was analyzed in the presence of 25 μM ITBA-3-79, ITBA-3-82 and ITBA-3-85 (FIG. 16).
A fluorescence based quantitative assay that measures helicase activity over time was employed to screen the compounds. The concentration of enzyme and compounds used was 250 nM and 20 μM respectively. Helicase catalyzes the unwinding of a FAM-labeled dsDNA and the resulting increase in fluorescence is plotted (λex-485 nm; λem, −528 nm). The slope of the initial part of the plot was used to calculate the percentage helicase activity. […] The IC50 value for ITBA-3-79, ITBA-3-82 and ITBA-3-85-mediated inhibition of NS3 helicase was determined using the same assay.

The structures appear in SMILES notation. Where “and” joins values, the source holds several entries; their conditions need not be identical. Equal entries are not always repeated.

As to `COc1ccc2c(c1)c(C=C1C(=O)NC(=S)NC1=O)cn2C(=O)c1ccc2ccccc2c1` [PNR-3-82], in assay [1] (20 min, compound 1 μM, read-out: % EndoG activity in the presence of the compound), the remaining activity at 1 µM was determined as 21.8%. Moreover, the IC50 in assay [1] (IC50 against EndoG, EndoG screening assay) is 0.613 µM and 0.61 µM; in assay [5], ~20 µM and 21.4 µM. The “cytoprotection against Docetaxel-induced cell death” value in assay [2] is recorded as “cytoprotective”. In assay [3], the SOD activity result is reported as “none of the two tested compounds had any inhibiting activity”. Moreover, in assay [4], the protease activity entry is “none of the two tested compounds had any inhibiting activity”.
